Experimental data from PubChem BioAssay AID463199 (Broad Institute, 2010).
The source made the active and inactive calls.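 Rule for the calls: active = AC50, the dose giving half-maximal effect, exceeds a fixed cutoff for a compound that rescues yeast growth under heat; inactive = the rest, inconclusive results apart.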

What follows are molecules tested on S. cerevisiae Burl-1 ts mutant growth, BacTiter-Glo, 38.5C 24 h (assay: growth induction of Burl-1 ts yeast mutant, dose response, counter-screen for SUMOylation pathway inhibitor project, whole organism, S. cerevisiae, luminescence (AID 463199)).
For `CC(C)(C)n1cnc2cc(NC(=O)c3ccc(Cl)cc3)ccc21`, the AC50 was > 42 µM (inactive).
`COc1ccc(-n2c(-c3ccccc3)nc3ccccc3c2=O)cc1` was tested, and the AC50 was > 42 µM (inactive).
With `Cc1sc2nc(N)sc2c1C` the AC50 was > 42 µM (inactive).
In the case of `O=C(CSc1nccc(=O)[nH]1)c1cc2ccccc2o1`, the AC50 is reported as > 42 µM (inactive).
For `Cc1ccc(-c2nc(-c3cccnc3)sc2CC(=O)O)cc1`, the AC50 was > 42 µM (inactive).
With `O=C1CCC(/C=C/c2ccccc2)=NN1Cc1ccc(Cl)c(Cl)c1` the AC50 was > 42 µM (inactive).
In the case of `O=C(N1CCOCC1)C1(S(=O)(=O)c2ccccc2)CC=CC1`, the AC50 is reported as > 42 µM (inactive).
`COc1cccc(OC)c1OCC(O)CN1CCN(c2ccccc2)CC1` (stereo unspecified) was tested, and the AC50 was > 42 µM (inactive).
With `O=c1cnc2ccccc2n1Cc1ccccc1C(F)(F)F` the AC50 was > 42 µM (inactive).
With `CCOc1ccccc1NC(=O)CSc1nc(N)c(C#N)cc1C#N` the AC50 was > 42 µM (inactive).
In the case of `Cc1cc(C(=O)NN)n[nH]1`, the AC50 is reported as > 42 µM (inactive).
In the case of `CC(C)CN(C(=O)COC(=O)c1ccc2c(c1)OCO2)c1c(N)n(Cc2ccccc2)c(=O)[nH]c1=O`, the AC50 is reported as > 42 µM (inactive).
`Cc1ccc2nc3c(cc(C(=O)NCCN4CCOCC4)c(=N)n3CCCN3CCOCC3)c(=O)n2c1` was tested, and the AC50 was > 42 µM (inactive).
With `Clc1cc(Br)ccc1OCCOCCN1CCOCC1` the AC50 was > 42 µM (inactive).
For `O=C(Nc1ccc(F)cc1F)N1CCCN(c2ccc(C(F)(F)F)cn2)CC1`, the AC50 was > 42 µM (inactive).
For `O=C(NCc1ccccc1)c1cccc(COc2ccc(Cl)cc2)c1`, the AC50 was > 42 µM (inactive).
With `O=C(CCCn1cnc([N+](=O)[O-])n1)Nc1cccc2ccccc12` the AC50 was > 42 µM (inactive).
`CC(C)(C)n1nnnc1C(c1ccc(Cl)cc1)N(Cc1cccnc1)Cc1ccco1` (stereo unspecified) was tested, and the AC50 was > 42 µM (inactive).
`COC(=O)C1C(c2ccc(OC)c(OC)c2)NC(c2ccc(OC)c(OC)c2)C(C(=O)OC)S1(=O)=O` (stereo unspecified) was tested, and the AC50 was > 42 µM (inactive).
For `CCC(CC)NC(=O)c1oc2ccccc2c1COc1ccccc1`, the AC50 was > 42 µM (inactive).
With `CC(C)C(=O)Nc1cccc(-c2nc3ncccc3o2)c1` the AC50 was > 42 µM (inactive).
For `CN1C(=O)NC(=O)[C@]2(Cc3ccccc3N3CCN(c4ccccc4)CC32)C1=O` (stereo partly specified), the AC50 was > 42 µM (inactive).
In the case of `COc1cccc(/C=N/NC(=O)CNC(=O)c2ccco2)c1O`, the AC50 is reported as > 42 µM (inactive).
`CCc1ccccc1NC(=O)N[C@@H](C)C(=O)OC` was tested, and the AC50 was > 42 µM (inactive).
For `COc1cccc(-c2nn(-c3ccccc3)cc2/C=C(/NC(=O)c2ccccc2)C(=O)O)c1`, the AC50 was > 42 µM (inactive).
In the case of `CCc1cc2c(=O)c(-c3nc4ccccc4[nH]3)coc2c(CN2CCCCC2)c1O`, the AC50 is reported as > 42 µM (inactive).
With `COc1ccccc1OCCSc1nc2ccccc2n1CCC(=O)O` the AC50 was > 42 µM (inactive).
For `Cc1cc(/C=N/NC(=O)c2ccsc2)c(C)n1-c1cnccn1`, the AC50 was > 42 µM (inactive).
In the case of `COc1ccc(N2C(=O)CCC(C(=O)NCc3cccnc3)C2c2ccc(OC)c(OC)c2)cc1` (stereo unspecified), the AC50 is reported as > 42 µM (inactive).
For `CC(Oc1ccccc1[N+](=O)[O-])C(=O)N/N=C/c1ccoc1` (stereo unspecified), the AC50 was > 42 µM (inactive).
In the case of `O=C(COc1cccc2cccnc12)N1CCc2ccccc21`, the AC50 is reported as > 42 µM (inactive).
In the case of `CC(C)c1ccc(-c2cc(C(=O)N3CCOCC3)c3cc(Br)ccc3n2)cc1`, the AC50 is reported as > 42 µM (inactive).
`CN(C(=O)COC(=O)c1cc(-c2ccc(Cl)s2)nc2ccccc12)C1CCS(=O)(=O)C1` (stereo unspecified) was tested, and the AC50 was > 42 µM (inactive).
With `CCCCOC(=O)/C(=C/C=C/c1ccccc1)NC(=O)c1ccccc1` the AC50 was > 42 µM (inactive).
With `COC(=O)CN(C(=S)Nc1ccc(F)cc1)C1CC(=O)N(c2ccccc2)C1=O` (stereo unspecified) the AC50 was > 42 µM (inactive).
`CN(CC(=O)NCc1cccs1)S(=O)(=O)c1cccc2nsnc12` was tested, and the AC50 was > 42 µM (inactive).
`COC(=O)CN1C(=O)c2cccc3cccc1c23` was tested, and the AC50 was > 42 µM (inactive).
In the case of `COCCn1c(SCC(=O)N2CCCC2)nnc1-c1ccoc1C`, the AC50 is reported as > 42 µM (inactive).
`CN(CC(=O)Nc1ccccc1Sc1ccccc1)Cc1nc2ccccc2c(=O)[nH]1` was tested, and the AC50 was > 42 µM (inactive).
With `c1ccc2c(C[C@@H]3CNCCN3CCCCC3CCCCC3)cccc2c1` the AC50 was > 42 µM (inactive).
`CCc1nn(C)c(N)c1C` was tested, and the AC50 was > 42 µM (inactive).
With `O=c1c2ccccc2ncn1Cc1ccc2c(c1)OCO2` the AC50 was > 42 µM (inactive).
With `CCn1c(CSCc2ccc(F)cc2)nnc1SCC(=O)NCc1ccccc1` the AC50 was > 42 µM (inactive).
For `N#CCCN(Cc1cccnc1)C(=O)Nc1cccc(Cl)c1`, the AC50 was > 42 µM (inactive).
In the case of `Cc1cccc(-[n+]2c(-c3cccc(Br)c3)[nH]c3nc4ccccc4nc32)c1`, the AC50 is reported as > 42 µM (inactive).
For `O=C(c1cc(-c2ccc(Cl)c(Cl)c2)on1)N1CCN(c2ccccc2)CC1`, the AC50 was > 42 µM (inactive).
For `COCCCNC(=O)c1cc2cc([N+](=O)[O-])cc(OC)c2oc1=O`, the AC50 was > 42 µM (inactive).
For `N/C(=N\N=C\c1ccc(O)cc1)c1nonc1N`, the AC50 was > 42 µM (inactive).
`COc1ccc(/C=C(/C#N)S(=O)(=O)c2ccc(C)cc2)cc1` was tested, and the AC50 was > 21 µM (inactive).
In the case of `CC12CC3(C)CC(C)(C1)CC(C(=O)NC(=S)N1CCCC1)(C2)C3`, the AC50 is reported as > 42 µM (inactive).
With `CC1(C)Cc2c(c(N3CCCC3)nc3sc4c(N5CCN(CCO)CC5)ncnc4c23)CO1` the AC50 was > 42 µM (inactive).
`CCNc1ccccc(C(=O)/C=C/c2ccc3c(c2)OCO3)c1=O` was tested, and the AC50 was > 42 µM (inactive).
With `COc1ccc(C(=O)NCC(=O)Nc2ccccc2)cc1OC` the AC50 was > 42 µM (inactive).
`CC(=O)Nc1ccc(CN2CCCC(CO)(Cc3cccc(Cl)c3)C2)cc1` (stereo unspecified) was tested, and the AC50 was > 42 µM (inactive).
For `Nc1cc(=O)[nH]c(=O)n1CCc1ccccc1`, the AC50 was > 42 µM (inactive).
`Cc1[nH]n(-c2ccccc2)c(=O)c1C(C[N+](=O)[O-])c1ccc(Br)cc1` (stereo unspecified) gave an AC50 of 42.1 µM.
With `C=CCN1c2ccccc2[C@]23C[C@@H](C(=O)OC)N=C2NC(C(=O)OC)=C(C(=O)OC)[C@H]13` the AC50 was > 42 µM (inactive).
With `CCC1CCCCN1C(=O)CSc1nnc(CNC(=O)c2ccco2)o1` (stereo unspecified) the AC50 was > 42 µM (inactive).
`Cc1nc2ccc(NC(=O)c3ccc(S(=O)(=O)N4CCOCC4)cc3)cc2s1` was tested, and the AC50 was > 42 µM (inactive).
With `COc1ccc(C)cc1NC(=O)C12CCC(C)(C(=O)O1)C2(C)C` (stereo unspecified) the AC50 was > 42 µM (inactive).
In the case of `CC(C)C(NC(=O)c1ccccc1)C(=O)NCC(c1ccccc1)N(C)C` (stereo unspecified), the AC50 is reported as > 42 µM (inactive).
For `CC(=O)NCCc1nc2cc(NC(=O)c3ccc(F)cc3)ccc2n1C`, the AC50 was > 42 µM (inactive).
For `COc1cc(SC)ccc1C(=O)Nc1cc(C)c(OCC(=O)N2CCOCC2)c(C)c1`, the AC50 was > 42 µM (inactive).
`O=S(=O)(NCC1CCCN(Cc2ccccc2O)C1)c1cccc2cccnc12` (stereo unspecified) was tested, and the AC50 was > 42 µM (inactive).
For `CC(=O)N1CC(=O)Nc2ccc(Cl)cc2C1c1ccccc1` (stereo unspecified), the AC50 was > 42 µM (inactive).
In the case of `CCOC(=O)c1[nH]c2ccc(F)cc2c1NC(=O)CCN1CCOCC1`, the AC50 is reported as > 42 µM (inactive).
In the case of `CCN1C(=NCC(C)C)N[C@@H](c2cccc(C(F)(F)F)c2)C(C(=O)OC)=C1C`, the AC50 is reported as > 42 µM (inactive).
In the case of `O=C1c2ccccc2NC(c2ccccc2O)N1O` (stereo unspecified), the AC50 is reported as > 42 µM (inactive).
With `CN1/C(=C\C(=O)COC(=O)c2ccc([N+](=O)[O-])o2)C(C)(C)c2ccccc21` the AC50 was > 42 µM (inactive).
`CN(C)c1ccc(CN(Cc2ccco2)C(=O)c2ccco2)cc1` was tested, and the AC50 was > 42 µM (inactive).
For `Cn1c(SCC(=O)N/N=C/c2ccc([N+](=O)[O-])s2)nnc1-c1ccc(Cl)cc1`, the AC50 was > 42 µM (inactive).
